SMILES strings stand for the structures.

Take `CC(=O)Nc1cccc(-c2cnc3[nH]cc(C(=O)C(C)(C)C)c3n2)c1`: the melting point lay within 249 to 250 °C.

Regarding `Cc1ccc(F)c(-n2cnc(-c3cnc4[nH]cc(C(=O)N[C@@H](C)C(C)(C)C)c4n3)c2)c1`, the melting point lay within 331 to 332 °C.

On to `CCOC(=O)C(=O)Cc1cc(=O)n(Cc2ccc(Cl)cc2)c2ccccc12`, for which the melting point lay within 180 to 182 °C.

With `CC#CCOc1cc(N(C)c2ccccc2)ncn1`, the melting point turned out to be 57.6 °C.

Consider `CCOc1nn(Cc2ccc(OCc3nc(-c4ccccc4)oc3C)nc2)cc1CC(=O)O`, for which the melting point was in the range of 126 to 127 °C.

For the molecule `CC(C)(C)OC(=O)C1Cc2ccccc2CN1C(=O)CBr` (stereo unspecified), the melting point lay in the range of 92 to 95 °C.

With `Cn1c(C(F)(F)F)cc(=O)n(-c2nc(Cl)c(O)cc2F)c1=O`, the melting point was in the range of 189 to 192 °C.

The molecule `Oc1ccc2ccccc2c1C1NCCc2ccccc21` (stereo unspecified) registered a melting point of 148 to 150 °C.

For the molecule `CCCCN(CCCC)c1ccc(C=CC=Cc2ccc(C=CC3=C(C#N)C(=C(C#N)C#N)OC3(c3ccccc3)C(F)(F)F)s2)c(OC)c1` (stereo unspecified), the melting point lay in the range of 125 to 140 °C.

Take `C#CCOc1cc(-n2nc3n(c2=O)CCCN3)c(F)cc1Cl`: the melting point fell in the range of 172 to 174 °C.

Molecule `CC(=NO)c1ccc2nnn(Cc3ccc4ncccc4c3)c2n1` had a melting point of 259 to 261 °C.

`Nc1ncc2cc(-c3ccncc3)c(N)nc2n1` registered a melting point above 340 °C.

Take `Cc1ccc(CC(=O)NCc2cccc3c2C(=O)N(C2CCC(=O)NC2=O)C3=O)cc1F` (stereo unspecified): the melting point was in the range of 148 to 150 °C.

With `Cc1cccc(C)c1/N=C1\SCC(=O)N1/N=C/c1ccc(-c2ncn(-c3ccc(OC(F)(F)F)cc3)n2)cc1`, the melting point was 209 to 213 °C.

In the case of `CC(=O)c1nn(CCOS(C)(=O)=O)cc1C`, the melting point lay in the range of 108 to 109 °C.

`CC(C(=O)O)c1ccc2c(-c3ccc(Cl)cc3)noc2c1` (stereo unspecified) yielded a melting point of 176 to 179 °C.

With `CC12CCC3C(CCC4CC(=O)CCC43C)C1CC=C2c1cccnc1` (stereo unspecified), the melting point fell in the range of 190 to 192 °C.

Consider `COc1ccc2c(Cc3c(Cl)cncc3Cl)nncc2c1C#Cc1ccccc1`, for which the melting point lay within 217 to 219 °C.

In the case of `O=C(O)Cc1ccc[nH]1`, the melting point is 83 to 84 °C.

Molecule `CC(C)NC(=O)c1ccc(N2CCC(N3C(=O)OCc4ccccc43)CC2)nc1` returned a melting point above 230 °C.

Take `Nc1ccc2[nH]c(C(=O)N3CC(CCl)c4c3cc(N)c3ccccc43)cc2c1` (stereo unspecified): the melting point was above 300 °C.

As to `Cc1oc2c(C)c(C)c(N3Cc4ccccc4C3)c(C)c2c1-c1ccc(C(C)C)cc1`, the melting point lay in the range of 126 to 129 °C.

`C=CCN(CC)c1nc(N2CCc3ccccc3CC2)c(C#N)c(=O)n1CC=C` gave a melting point of 138 to 140 °C.

As to `O=C1C=NC(c2ccccc2)O1` (stereo unspecified), the melting point was 90 °C.

With `CCCCCCCCCCCCCCCCCC(=O)N1CC1C#N` (stereo unspecified), the melting point fell in the range of 85 to 88 °C.

In turn, `COc1ccc(C(=O)CCC2OCCO2)cc1OC` showed a melting point of 103 to 105 °C.

As for `O=C(O)c1cccc2oc(-c3ccccc3OCc3ccccc3)nc12`, the melting point lay in the range of 103 to 104 °C.

Molecule `CC(C)(C)C(O)(COc1ccc(Cl)cc1)c1cncnc1` (stereo unspecified) yielded a melting point of 172 to 174 °C.

As to `CC(C)c1ccc(-c2cc(-c3cccc(C(=O)O)c3)cs2)cc1`, the melting point lay within 208 to 209 °C.

`CC(C)c1nc(N(C)S(C)(=O)=O)nc(-c2ccc(F)cc2)c1/C=C/C#N` registered a melting point of 134 °C.

In turn, `CC(C)C(=O)O[C@H](C)[C@@H](C)OC(=O)[C@@H](N)Cc1ccc(O)c(O)c1` showed a melting point of 165 to 166 °C.

The molecule `CC(=O)c1cccc(-c2c(C)c(NC(=O)CC(C)(C)C)c(C)c3c2OCC3c2ccc(C(C)C)cc2)c1` (stereo unspecified) showed a melting point of 209 to 210 °C.

Regarding `O=C(NO)c1ccc(-c2ccc3nnn(Cc4ccc5ncccc5c4)c3n2)cc1F`, the melting point was in the range of 180 to 182 °C.

Turning to `O=C(c1cccs1)c1cnn2c(-c3cccc(-c4ccc(CNCCN5CCOCC5)cc4)c3)ccnc12`, the melting point lay within 100 to 106 °C.

Turning to `COc1cc(C(=O)c2ccnn2C)c(Cl)c(Cl)c1OC`, the melting point is 99.5 to 101 °C.

Regarding `C[C@H]1CCCC(C)(C)[C@@H]1[C@H](O)c1ccc(Cl)c(Cl)c1`, the melting point lay within 94.2 to 96.2 °C.

As for `COc1ccc2nc(NC(=O)C(CC3CCCC3)c3ccc(S(=O)(=O)N4CCN(C(C)=O)CC4)cc3)sc2n1` (stereo unspecified), the melting point is 215 to 217 °C.

As to `CS(=O)(=O)c1ccccc1-c1cc(CCO)nn1C1CCCCC1`, the melting point was 108 °C.

As for `N#Cc1c(N2CCCC2)nsc1N`, the melting point came to 198 °C.

`CSc1sc(C(N)=O)c2c1-c1[nH]c(-c3ccccc3)nc1CC2` gave a melting point of 206 to 207 °C.

The molecule `CC(=O)c1cc(Cl)c(N)cc1F` came in with a melting point of 97 to 98 °C.

Regarding `CCOC(=O)c1ccc(-c2nc(COc3ccc(COc4nn(-c5ccccc5)cc4C=O)cc3OC)c(C)o2)s1`, the melting point was in the range of 156 to 157 °C.

In turn, `C[Si](C)(C)C#CC1(OC(=O)c2ccccc2)C(COC(=O)c2ccc(Cl)cc2)OC(OC(=O)c2ccccc2)C1OC(=O)c1ccccc1` (stereo unspecified) returned a melting point of 63 to 66 °C.

On to `N#Cc1ccc(OCC[C@@H](NC(=O)OCc2ccccc2)C(=O)OC(c2ccccc2)c2ccccc2)cc1`, for which the melting point fell in the range of 125 to 126 °C.

Take `N#Cc1ccc(C#CCCC(=O)O)cc1`: the melting point fell in the range of 149 to 152 °C.

For `COc1ccc2c(c1)C(c1ccc(O)cc1)c1c-2ccc2cc(OC)ccc12` (stereo unspecified), the melting point is 196 to 199 °C.

Molecule `CC[C@H]1[C@@H](O)C(F)(F)C(=O)N1c1ccc(C#N)c(Cl)c1` displayed a melting point of 137 to 140 °C.

Turning to `CC(=O)SC(CC(=O)c1ccc(Cl)c(Cl)c1)C(=O)O` (stereo unspecified), the melting point was in the range of 102 to 105 °C.

In the case of `Nc1ccc(-n2cc(C(F)(F)F)ccc2=O)c(Cl)c1`, the melting point is 136 to 138 °C.

As to `Cc1ccc(-c2nnc(N(CCCCOCC(=O)O)C(C)C)nc2-c2ccc(C)cc2)cc1`, the melting point fell in the range of 119 to 121 °C.

`FC(F)(F)c1cccc2c1Sc1ccccc1NC2=S`: the melting point fell in the range of 265 to 267 °C.

On to `CCCC(C)(C)C[C@@H](CC(=O)OC(C)(C)C)C(=O)N1C(=O)O[C@H](c2ccccc2)[C@@H]1C`, for which the melting point lay in the range of 83 to 85 °C.

As for `Cc1ccc(C)c(OCc2ccccc2/C(=N\O)C(N)=O)c1`, the melting point lay in the range of 166 to 168 °C.

As for `CC(=O)c1cccc(N2CCN(CCC3CCC(NC(=O)CC#N)CC3)CC2)c1` (stereo unspecified), the melting point worked out at 160 °C.

`O=C(CN1CCC(Cc2ccccc2)CC1)Nc1ccc2[nH]c(=S)oc2c1` showed a melting point of 183 to 184 °C.

As to `COc1ccc(C(=O)C(=O)c2cccc(-c3ccc(S(C)(=O)=O)cc3)c2-c2ccccc2)cc1OC`, the melting point fell in the range of 181 to 183 °C.

The molecule `CC(=O)OC1CC(C)(C)C(OC(=O)c2ccccc2)C(O)C=C1C` (stereo unspecified) had a melting point of 113 to 114 °C.

With `CCOC(=O)c1cn2c(-c3ccccc3)cccc2n1`, the melting point lay in the range of 123 to 124 °C.

`CCOC(=O)C(=CNc1ccc2c(c1)N1CCN=C1S2)C(=O)OCC` had a melting point of 140 °C.

Turning to `COc1ccc(C2CNCc3cc(C)ccc32)cc1OC` (stereo unspecified), the melting point lay within 129 to 131 °C.

With `COc1ccc(-c2c(-c3cc(OC)c(OC)c(OC)c3)ncn2-c2cc(OC)c(OC)c(OC)c2)cc1O`, the melting point lay within 154 to 156 °C.

For the molecule `CC1=Nc2c(C)nn(CC(F)(F)F)c2C2=NC(C)CN12` (stereo unspecified), the melting point fell in the range of 91 to 95 °C.

As for `Cn1cncc1C(N)(c1ccc(C#N)cc1)c1ccc2c(c1)c(-c1cccc(Cl)c1)cc(=O)n2C` (stereo unspecified), the melting point stood at 245 °C.

Take `O=c1cc(-c2ccncn2)nc2n1Cc1ccccc1N2`: the melting point lay within 290 to 292 °C.

`CCCCc1nn(-c2cc([N+](=O)[O-])ccc2Cl)c(C(=O)OCC)c1Cc1ccc(-c2ccccc2S(=O)(=O)NC(=O)c2ccccc2Cl)cc1`: the melting point is above 60 °C.

Take `N#Cc1cccc(-c2ccc(OC[C@@H](O)CCc3cccnc3)cc2)c1`: the melting point fell in the range of 74 to 75 °C.

The molecule `CNC(=S)NC(c1ccccc1)c1ccccc1` gave a melting point of 152 to 154 °C.

For `Nc1cc2c(cc1N)OCOC2`, the melting point was in the range of 156 to 158 °C.

As for `CCN(CC)CC1(C(F)(F)F)c2cc(Cl)ccc2Nc2ncccc21` (stereo unspecified), the melting point lay within 115 to 117 °C.

Take `CC(C)(C)OC(=O)NCCNC(=O)c1cccc2c1c(C(=O)C(=O)NC1=CC(=O)OC1)cn2Cc1ccc(Cl)cc1`: the melting point was in the range of 218 to 219 °C.

As for `Clc1cc(N2CCCC2)nc(Cl)n1`, the melting point fell in the range of 100 to 104 °C.

On to `O=S1(=O)N=C(NCCCOc2cccc(CN3CCCCC3)c2)c2ccc(F)cc21`, for which the melting point lay in the range of 139 to 163 °C.

`Fc1c(OCc2ccccc2)ccc(-c2ncc(Br)cn2)c1F` registered a melting point of 138 °C.

Turning to `NC(=O)C(=O)Nc1nc(-c2oncc2-c2c(F)cccc2Cl)cs1`, the melting point lay in the range of 235 to 237 °C.

Turning to `CN(C)CCCOc1ccc(N2N=C3c4cc(F)ccc4CCC3CC2=O)cc1` (stereo unspecified), the melting point lay in the range of 118 to 120 °C.

With `CCN1c2ncc(CSc3ccncc3)cc2C(=O)N(C)c2ccc(Cl)nc21`, the melting point was 140 to 142 °C.

Regarding `COC(=O)C1(C(=O)Nc2ccc(Br)cc2C)CC1`, the melting point lay in the range of 106 to 108 °C.

As for `O=[N+]([O-])c1cc(Cl)ccc1NS(=O)(=O)c1ccc(Cl)cc1`, the melting point was 122 to 123 °C.

`COC(=O)c1ccc2c(c1)SC(c1ccccc1)C(c1ccc3c(c1)NC(=O)CO3)=C2` (stereo unspecified) came in with a melting point of 217 to 219 °C.

As for `O=C1NC(=O)C(Nc2ccc(CCNC[C@H](O)COc3ccc(O)cc3)cc2)S1` (stereo partly specified), the melting point was found to be 165 °C.

`O=C1NCCNc2c1sc1ccccc21` showed a melting point of 210 to 212 °C.

In turn, `C[C@@H]1N(c2ccc(C#N)c(Cl)c2)C(=O)C[C@]1(C)O` came in with a melting point of 93 to 99 °C.

In turn, `CN(C)CCNc1c2nc3ccccc3c-2n(C)c2ccccc12` gave a melting point of 162 to 164 °C.

`O=c1[nH]c2ccccc2n1C1CCN(C[C@@H]2CO[C@@H](c3ccc(F)cc3)C2)CC1` (relative stereo) gave a melting point of 154 to 155 °C.

Molecule `[O-][N+]1=C(c2ccccc2F)c2cc(Cl)ccc2-n2cnc(N3CCOCC3)c2C1` showed a melting point of 200 to 203 °C.

`O=C(Nc1c(Cl)cncc1Cl)c1ccc(OCC2CC2)c2oc3ccccc3c12` displayed a melting point of 242 °C.

The values above are taken from a melting point compilation (Tetko et al.; mined from patent text by program, amines drawn as free bases though some values may be those of a salt).
